Source: US11053204B2, “Pyrimidinyloxy benzene derivatives as herbicides” (FMC Corporation, priority 2015, dated 2021)

What was measured:
Assay type in all cases: in vivo
[1] = tested on: pigweed (Amaranthus retroflexus); assay: Test A preemergence, visual injury rating
How it was run: (§1)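 Scoring: eye-based comparison with untreated controls, 0 for no effect through 100 for complete control, at about day 10. Treatments: directed soil spray preemergence; foliar spray postemergence on 2–10 cm plants at the one- to two-leaf stage. Medium: loam soil with sand.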

kochia (Kochia scoparia) [2] = assay: Test A preemergence, visual injury rating
How it was run: as §1

[3] = tested on: Italian ryegrass (Lolium multiflorum); assay: Test A preemergence, visual injury rating
How it was run: as §1

[4] = tested on: barnyardgrass (Echinochloa crus-galli); assay: Test A preemergence, visual injury rating
How it was run: as §1

[5] = tested on: ragweed (common ragweed, Ambrosia elatior); assay: Test A preemergence, visual injury rating
How it was run: as §1

[6] = tested on: giant foxtail (Setaria faberii); assay: Test A preemergence, visual injury rating
How it was run: as §1

corn (Zea mays) = assay: Test A postemergence, visual injury rating; conditions: 0 to 100 scale, 0 is no effect, 100 is complete control, approximately 10 days
How it was run: as §1

[7] = tested on: wheat (Triticum aestivum); assay: Test A postemergence, visual injury rating; conditions: 0 to 100 scale, 0 is no effect, 100 is complete control, approximately 10 days
How it was run: as §1

[8] = tested on: pigweed (Amaranthus retroflexus); assay: Test A postemergence, visual injury rating; conditions: 0 to 100 scale, 0 is no effect, 100 is complete control, approximately 10 days
How it was run: as §1

kochia (Kochia scoparia) [9] = assay: Test A postemergence, visual injury rating; conditions: 0 to 100 scale, 0 is no effect, 100 is complete control, approximately 10 days
How it was run: as §1

[10] = tested on: Italian ryegrass (Lolium multiflorum); assay: Test A postemergence, visual injury rating; conditions: 0 to 100 scale, 0 is no effect, 100 is complete control, approximately 10 days
How it was run: as §1

[11] = tested on: barnyardgrass (Echinochloa crus-galli); assay: Test A postemergence, visual injury rating; conditions: 0 to 100 scale, 0 is no effect, 100 is complete control, approximately 10 days
How it was run: as §1

[12] = tested on: galium (catchweed bedstraw, Galium aparine); assay: Test A postemergence, visual injury rating; conditions: 0 to 100 scale, 0 is no effect, 100 is complete control, approximately 10 days
How it was run: as §1

[13] = tested on: ragweed (common ragweed, Ambrosia elatior); assay: Test A postemergence, visual injury rating; conditions: 0 to 100 scale, 0 is no effect, 100 is complete control, approximately 10 days
How it was run: as §1

[14] = tested on: giant foxtail (Setaria faberii); assay: Test A postemergence, visual injury rating; conditions: 0 to 100 scale, 0 is no effect, 100 is complete control, approximately 10 days
How it was run: as §1

[15] = tested on: blackgrass (Alopecurus myosuroides); assay: Test A postemergence, visual injury rating; conditions: 0 to 100 scale, 0 is no effect, 100 is complete control, approximately 10 days
How it was run: as §1

[16] = tested on: sedge, umbrella (small-flower umbrella sedge, Cyperus difformis); assay: Test B flooded paddy test, plant response rating; conditions: 250 g ai/ha; Flood; scale of 0 to 100 where 0 is no effect and 100 is complete control; 13 to 15 days
How it was run: (§2)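 Visual injury ratings against untreated controls, taken 13 to 15 days after compound was added to paddy water standing 3 cm above the soil.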

rice (Oryza sativa) = assay: Test B flooded paddy test, plant response rating; conditions: 250 g ai/ha; Flood; scale of 0 to 100 where 0 is no effect and 100 is complete control; 13 to 15 days
How it was run: as §2

[17] = tested on: ducksalad (Heteranthera limosa); assay: Test B flooded paddy test, plant response rating; conditions: 250 g ai/ha; Flood; scale of 0 to 100 where 0 is no effect and 100 is complete control; 13 to 15 days
How it was run: as §2

[18] = tested on: barnyardgrass (Echinochloa crus-galli); assay: Test B flooded paddy test, plant response rating; conditions: 250 g ai/ha; Flood; scale of 0 to 100 where 0 is no effect and 100 is complete control; 13 to 15 days
How it was run: as §2

[19] = 31 g ai/ha, 0 to 100 scale, 0 no effect, 100 complete control
[20] = 125 g ai/ha, 0 to 100 scale (0 no effect, 100 complete control)

SMILES	Plant response rating, Pigweed [1, 19]	Plant response rating, Pigweed [1, 20]	Plant response rating, Kochia (kochia (Kochia scoparia) [2]; [19])	Plant response rating, Kochia (kochia (Kochia scoparia) [2]; [20])	Plant response rating, Ryegrass, Italian [3, 19]	Plant response rating, Ryegrass, Italian [3, 20]	Plant response rating, Barnyardgrass [4, 19]	Plant response rating, Barnyardgrass [4, 20]	Plant response rating, Ragweed [5, 19]	Plant response rating, Ragweed [5, 20]	Plant response rating, Foxtail, Giant [6, 19]	Plant response rating, Foxtail, Giant [6, 20]	Corn plant response rating (corn (Zea mays); 31 g ai/ha)	Corn plant response rating (corn (Zea mays); 125 g ai/ha)	Wheat plant response rating ([7]; 31 g ai/ha)	Wheat plant response rating ([7]; 125 g ai/ha)	Pigweed plant response rating ([8]; 31 g ai/ha)	Pigweed plant response rating ([8]; 125 g ai/ha)	Kochia plant response rating (kochia (Kochia scoparia) [9]; 31 g ai/ha)	Kochia plant response rating (kochia (Kochia scoparia) [9]; 125 g ai/ha)	other results
CCCCC(C#N)c1c(Br)cccc1Oc1ncc(Cl)cn1 (stereo not drawn) [Compound 114]	0	30	0	10	0	0	0	20	20	80	10	90	10	20	0	10	50	100	20	80	Ryegrass, Italian plant response rating ([10]; 31 g ai/ha): 0; Ryegrass, Italian plant response rating ([10]; 125 g ai/ha): 10; Barnyardgrass plant response rating ([11]; 31 g ai/ha): 0; Barnyardgrass plant response rating ([11]; 125 g ai/ha): 10; Galium plant response rating ([12]; 31 g ai/ha): 50; Galium plant response rating ([12]; 125 g ai/ha): 80; Ragweed plant response rating ([13]; 31 g ai/ha): 0; Ragweed plant response rating ([13]; 125 g ai/ha): 20; Foxtail, Giant plant response rating ([14]; 31 g ai/ha): 0; Foxtail, Giant plant response rating ([14]; 125 g ai/ha): 20; Blackgrass plant response rating ([15]; 31 g ai/ha): 0; Blackgrass plant response rating ([15]; 125 g ai/ha): 10; Plant response rating, Sedge, Umbrella [16]: 90; Plant response rating, Rice (rice (Oryza sativa)): 0; Plant response rating, Ducksalad [17]: 40; Plant response rating, Barnyardgrass [18]: 0
CC(C)Oc1cccc(Oc2ncc(Cl)cn2)c1C(=O)OCCC(F)(F)F [Compound 115]	0	0	70	0	0	0	0	0	20	0	0	0	0	10	0	0	10	40	0	0	Ryegrass, Italian plant response rating ([10]; 31 g ai/ha): 0; Ryegrass, Italian plant response rating ([10]; 125 g ai/ha): 0; Barnyardgrass plant response rating ([11]; 31 g ai/ha): 0; Barnyardgrass plant response rating ([11]; 125 g ai/ha): 0; Galium plant response rating ([12]; 31 g ai/ha): 20; Galium plant response rating ([12]; 125 g ai/ha): 20; Ragweed plant response rating ([13]; 31 g ai/ha): 0; Ragweed plant response rating ([13]; 125 g ai/ha): 0; Foxtail, Giant plant response rating ([14]; 31 g ai/ha): 0; Foxtail, Giant plant response rating ([14]; 125 g ai/ha): 0; Blackgrass plant response rating ([15]; 31 g ai/ha): 0; Blackgrass plant response rating ([15]; 125 g ai/ha): 20; Plant response rating, Sedge, Umbrella [16]: 0; Plant response rating, Rice (rice (Oryza sativa)): 0; Plant response rating, Ducksalad [17]: 0; Plant response rating, Barnyardgrass [18]: 0
CCOc1cccc(Oc2ncc(Cl)cn2)c1C(=O)OCCC(F)(F)F [Compound 116]	50	70	0	0	0	0	0	0	30	0	0	30	0	10	0	0	40	50	0	10	Ryegrass, Italian plant response rating ([10]; 31 g ai/ha): 0; Ryegrass, Italian plant response rating ([10]; 125 g ai/ha): 0; Barnyardgrass plant response rating ([11]; 31 g ai/ha): 0; Barnyardgrass plant response rating ([11]; 125 g ai/ha): 10; Galium plant response rating ([12]; 31 g ai/ha): 30; Galium plant response rating ([12]; 125 g ai/ha): 60; Ragweed plant response rating ([13]; 31 g ai/ha): 0; Ragweed plant response rating ([13]; 125 g ai/ha): 0; Foxtail, Giant plant response rating ([14]; 31 g ai/ha): 0; Foxtail, Giant plant response rating ([14]; 125 g ai/ha): 20; Blackgrass plant response rating ([15]; 31 g ai/ha): 0; Blackgrass plant response rating ([15]; 125 g ai/ha): 0; Plant response rating, Sedge, Umbrella [16]: 90; Plant response rating, Rice (rice (Oryza sativa)): 70; Plant response rating, Ducksalad [17]: 75; Plant response rating, Barnyardgrass [18]: 30
O=C(OCCC(F)(F)F)c1c(OCC(F)(F)F)cccc1Oc1ncc(Cl)cn1 [Compound 117]	0	30	0	0	0	0	0	0	0	0	0	20	10	10	0	0	30	70	20	50	Ryegrass, Italian plant response rating ([10]; 31 g ai/ha): 0; Ryegrass, Italian plant response rating ([10]; 125 g ai/ha): 0; Barnyardgrass plant response rating ([11]; 31 g ai/ha): 0; Barnyardgrass plant response rating ([11]; 125 g ai/ha): 10; Galium plant response rating ([12]; 31 g ai/ha): 60; Galium plant response rating ([12]; 125 g ai/ha): 100; Ragweed plant response rating ([13]; 31 g ai/ha): 0; Ragweed plant response rating ([13]; 125 g ai/ha): 20; Foxtail, Giant plant response rating ([14]; 31 g ai/ha): 0; Foxtail, Giant plant response rating ([14]; 125 g ai/ha): 10; Blackgrass plant response rating ([15]; 31 g ai/ha): 0; Blackgrass plant response rating ([15]; 125 g ai/ha): 10; Plant response rating, Sedge, Umbrella [16]: 60; Plant response rating, Rice (rice (Oryza sativa)): 0; Plant response rating, Ducksalad [17]: 20; Plant response rating, Barnyardgrass [18]: 0
CCCC(C#N)c1c(Br)cccc1Oc1ncc(Cl)cn1 (stereo not drawn) [Compound 118]	20	50	0	0	0	0	0	0	100	50	0	20	0	10	0	0	40	60	30	60	Ryegrass, Italian plant response rating ([10]; 31 g ai/ha): 0; Ryegrass, Italian plant response rating ([10]; 125 g ai/ha): 0; Barnyardgrass plant response rating ([11]; 31 g ai/ha): 0; Barnyardgrass plant response rating ([11]; 125 g ai/ha): 10; Galium plant response rating ([12]; 31 g ai/ha): 10; Galium plant response rating ([12]; 125 g ai/ha): 30; Ragweed plant response rating ([13]; 31 g ai/ha): 0; Ragweed plant response rating ([13]; 125 g ai/ha): 10; Foxtail, Giant plant response rating ([14]; 31 g ai/ha): 0; Foxtail, Giant plant response rating ([14]; 125 g ai/ha): 10; Blackgrass plant response rating ([15]; 31 g ai/ha): 0; Blackgrass plant response rating ([15]; 125 g ai/ha): 0; Plant response rating, Sedge, Umbrella [16]: 50; Plant response rating, Rice (rice (Oryza sativa)): 0; Plant response rating, Ducksalad [17]: 0; Plant response rating, Barnyardgrass [18]: 0
